{
  "source": "patent US12109184B2",
  "about": "“Personalized methods of treating cancer” (CANCER RESEARCH TECHNOLOGY LIMITED, priority 2020, dated 2024)",
  "assay_type_in_all_cases": "cell-based",
  "key": {"[1]": {"tested_on": "SW480 and MDA-MB-231 cells", "test": "Cell counting, rescue by cysteine precursors during cysteine starvation", "settings": "supplement at 0.8 mM", "experimental": "HCT116, SW480, MDA-MB-468, MDA-MB-231, AsPC-1, BxPC-3, CFPAC-1, MIAPaCa-2, PANC-1, Panc10.05, SW1990, U-251, LN-18, LN-229, T98G, U-343, A-172 cells were used. Cell lines were authenticated using Short Tandem Repeat (STR) profiling and tested for mycoplasma. Colorectal and breast cancer cell lines were grown in Dulbecco's Modified Eagle Medium (DMEM), pancreatic ductal adenocarcinoma (PDAC) cell lines were grown in Roswell Park Memorial institute (RPMI) 1640. All cell lines were supplemented with penicillin-streptomycin, amphotericin, 2 mM L-glutamine, and 10% fetal bovine serum (FBS). Cells were kept at 37° C. in 5% CO2 in a humidified cell culture incubator. A formulated medium lacking cysteine, cystine, methionine, and serine was used as a base for creating experimental media. The base medium formulation contained 0.2 mM L-histidine, 0.4 mM L-isoleucine, 0.4 mM L-leucine, 0.4 mM L-lysine, 0.2 mM L-phenylalanine, 0.4 mM L-threonine, 0.08 mM L-tryptophan, 0.4 mM L-valine, 0.2 mM L-arginine, 2 mM L-glutamine, 0.2 mM L-tyrosine, 0.4 mM L-alanine, 0.3 mM L-proline, 0.15 mM L-glutamic acid, 0.1 mM L-aspartic acid, 0.2 mM L-asparagine, and 0.4 mM glycine. The base medium was supplemented with 10% dialyzed FBS, penicillin-streptomycin, and amphotericin. To ensure an adequate supply of vitamin B6 (a crucial co-factor for de novo cysteine synthesis), base medium was supplemented with additional 20 μM vitamin B6. The control experimental medium was the base medium supplemented with 0.4 mM L-cysteine, 0.2 mM L-methionine, and 0.4 mM L-serine. The cysteine starvation (−Cys) experimental medium was base medium supplemented with 0.2 mM L-methionine and 0.4 mM L-serine.\nCells were seeded at 6×10^4 cells per well into 24-well plates (triplicate wells per condition) in the relevant complete medium and adhered for a full 24-hour period. A ‘time-0’ plate was included to record the starting cell number to calculate relative cell numbers. Cells were washed once with phosphate-buffered saline (PBS) before receiving experimental medium containing or lacking the specified amino acids, metabolites, or drugs. At the stated time-points the medium was removed, cells were fixed in a 4% formalin-PBS solution. Cells were then washed and stored in PBS before staining with 4′,6-diamidino-2-phenylindole (DAPI)-Triton™ X100-PBS solution for 1 hour, followed by storage in PBS at 4° C. until further analysis. DAPI-stained cell nuclei were detected via microscopy.\nHomocysteine, cystathionine, glutathione, putrescine, spermine, spermidine, GPX4 inhibitor ML210, SMOX inhibitor MDL 72527, PAOX inhibitor diminazene aceturate, ferrostatin-1 and erastin were used. AMD1 inhibitor sardomozide/SAM486A, GPX4 inhibitor RSL3, and CSE inhibitor beta-cyano-L-alanine were used. […]"}, "[2]": {"tested_on": "breast, colorectal and pancreatic cancer cell lines", "test": "Cell counting in complete or cysteine-free medium, cell lines not given", "settings": "supplementation during cysteine starvation"}, "[3]": {"tested_on": "MDA-MB-231, PANC-1, and MIAPaCa-2 cells", "test": "CellROX assay on live cells, starvation-sensitive cell lines", "settings": "cysteine starved, MTAP deleted cells, 18 h", "experimental": "Cells were seeded as described above. Live cells were stained with Hoechst 33342 nuclear stain for 20 min. The medium was removed, and cells were stained in 100 μl medium containing CellTracker™ Green CMFDA Dye and Hoechst stain for 40 min. The cells were then washed with PBS, and 300 μl of the relevant experimental medium was added for 1 hour. Then, CellROX® Deep Red was spiked into the medium, and the cells were incubated for 40 min. The medium was removed, the cells were washed with PBS, and new relevant experimental medium including CellROX was added. The cells were imaged using an Operetta automated microscope platform set to 37° C. in 5% CO2 every hour for 16-24 hours. I"}},
  "note": "“Also recorded” adds a separate entry of the source.",
  "data": [
    {"smiles": "CSCC[C@H](N)C(=O)O", "note": "[methionine]", "values": [
      {"measurement": "restoration of proliferation during cysteine starvation", "setting": "[1]", "result": "no rescue"},
      {"measurement": "rescue from cysteine starvation-induced cell death (summary in discussion)", "setting": "[2]", "result": "unable to provide rescue; also recorded: did not"},
      {"measurement": "ROS levels (CellROX) in response to methionine concentration", "setting": "[3]", "result": "increased in a dose-dependent manner"}
    ]}
  ]
}
